Series [1] is described as follows: Pharmacokinetics of RD162 in mice.
The subject of the next series is LNCaP/AR xenografts. The series can be described thus: Ki-67 staining of LNCaP/AR xenografts. The series is classed as in vivo, mice. The following applies: after 5 days of treatment.
Another series has as its target T1, glucocorticoid receptor (Homo sapiens, UniProt P04150).
T1 sequence (P04150 1-777): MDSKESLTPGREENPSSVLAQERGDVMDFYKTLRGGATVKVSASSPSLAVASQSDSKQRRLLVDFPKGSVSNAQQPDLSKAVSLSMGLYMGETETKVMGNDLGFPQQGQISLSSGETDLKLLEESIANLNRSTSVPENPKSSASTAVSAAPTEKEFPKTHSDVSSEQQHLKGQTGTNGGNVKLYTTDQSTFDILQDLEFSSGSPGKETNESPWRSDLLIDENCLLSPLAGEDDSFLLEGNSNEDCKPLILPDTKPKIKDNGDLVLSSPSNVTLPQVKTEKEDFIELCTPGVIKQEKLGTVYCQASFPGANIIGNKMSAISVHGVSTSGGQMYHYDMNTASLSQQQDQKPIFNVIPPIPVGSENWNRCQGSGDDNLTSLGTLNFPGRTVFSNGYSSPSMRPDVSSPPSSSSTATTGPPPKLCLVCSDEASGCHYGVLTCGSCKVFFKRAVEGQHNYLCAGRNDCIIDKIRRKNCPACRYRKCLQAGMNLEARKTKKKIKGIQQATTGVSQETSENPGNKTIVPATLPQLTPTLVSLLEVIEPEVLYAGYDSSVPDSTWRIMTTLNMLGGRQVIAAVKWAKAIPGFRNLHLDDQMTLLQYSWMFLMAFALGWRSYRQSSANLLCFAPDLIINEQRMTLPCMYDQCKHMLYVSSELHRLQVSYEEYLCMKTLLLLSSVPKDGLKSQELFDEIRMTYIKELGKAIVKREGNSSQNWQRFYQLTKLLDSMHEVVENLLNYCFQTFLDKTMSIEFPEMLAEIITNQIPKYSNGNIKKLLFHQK
The series can be described thus: in vitro fluorescence polarization binding assay. Background: Fluorescence polarisation rises when a labelled molecule tumbles more slowly, as on binding a larger partner.

The test system of series [2] is DU145 prostate cancer xenografts. The series can be described thus: AR-negative DU145 prostate cancer xenografts. The following applies: mouse, in vivo. Further details: species or system mice.
The test system of series [3] is AR target genes PSA and TMPRSS2 in LNCaP/AR cells. The series can be described thus: qRT-PCR of AR-dependent genes in LNCaP/AR cells. The series is classed as cell-based, human. The following applies: androgen-depleted media 5% CSS, 8 hours, 1 and 10 μM.
The test system of series [4] is AR recruitment to PSA enhancer and TMPRSS2 enhancer in LNCaP/AR cells. The experiment in a line: Chromatin immunoprecipitation of AR in LNCaP/AR cells. The series is classed as cell-based, human.
For a further series, the system named is estrogen receptor. The experiment in a line: in vitro fluorescence polarization binding assay.
Series [5] in a line: Plasma levels in LNCaP/AR tumor-bearing mice. The conditions noted are these: 10 mg/kg oral daily, 20 hours after the final dose on day 28.
In another series the test system is VP16-AR fusion protein. In kind it is cell-based. The conditions noted are these: Cos-7 cells, 24 hours.
Series [6] concerns DU145 human prostate cancer cells. The series can be described thus: Growth of AR-negative DU145 cells in vitro. The series is classed as cell-based.
Series [7] concerns AR recruitment to PSA enhancer and TMPRSS2 enhancer in parental LNCaP cells. The series can be described thus: Chromatin immunoprecipitation of AR in parental LNCaP cells. The series is classed as cell-based, human.
The test system of series [8] is VCaP cells. The series can be described thus: VCaP apoptosis. In kind it is cell-based, human. The following applies: 10 μM, 1 or 3 days, PARP cleavage.
For series [9], the target named is T2, AR (Homo sapiens, UniProt P10275).
T2 sequence (P10275 1-920): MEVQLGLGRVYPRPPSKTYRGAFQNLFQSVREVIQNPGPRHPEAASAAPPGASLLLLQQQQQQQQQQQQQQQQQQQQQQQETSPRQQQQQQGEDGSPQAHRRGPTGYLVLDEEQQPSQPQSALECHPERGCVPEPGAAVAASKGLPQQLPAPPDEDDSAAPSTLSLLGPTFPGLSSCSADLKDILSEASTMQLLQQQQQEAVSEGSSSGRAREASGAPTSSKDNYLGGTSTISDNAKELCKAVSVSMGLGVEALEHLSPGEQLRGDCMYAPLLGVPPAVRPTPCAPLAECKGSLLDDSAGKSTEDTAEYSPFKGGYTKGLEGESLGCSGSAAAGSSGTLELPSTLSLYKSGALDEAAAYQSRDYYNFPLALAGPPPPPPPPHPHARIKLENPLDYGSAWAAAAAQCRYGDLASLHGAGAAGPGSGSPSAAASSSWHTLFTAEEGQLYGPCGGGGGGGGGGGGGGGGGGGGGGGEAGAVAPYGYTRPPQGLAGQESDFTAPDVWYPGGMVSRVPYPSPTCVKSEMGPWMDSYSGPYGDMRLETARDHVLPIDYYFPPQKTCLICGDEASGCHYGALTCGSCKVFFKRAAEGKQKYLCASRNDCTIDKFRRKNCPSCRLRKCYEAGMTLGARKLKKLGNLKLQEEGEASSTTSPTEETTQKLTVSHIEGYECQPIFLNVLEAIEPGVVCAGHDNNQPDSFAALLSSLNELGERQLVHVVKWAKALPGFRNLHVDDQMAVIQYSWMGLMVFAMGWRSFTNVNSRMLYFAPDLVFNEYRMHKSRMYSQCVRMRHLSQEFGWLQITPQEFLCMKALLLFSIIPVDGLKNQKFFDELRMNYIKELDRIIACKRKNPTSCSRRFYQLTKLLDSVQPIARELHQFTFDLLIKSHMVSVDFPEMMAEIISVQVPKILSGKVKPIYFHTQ
The experiment in a line: in vitro studies of AR activity. The series is classed as cell-based.

Series [10] has as its system VCaP cells. The experiment in a line: VCaP cell proliferation. The following applies: 1 and 10 μM, media containing FBS. The series is classed as cell-based, human.
The test system of series [11] is AR. In kind it is cell-based. The conditions noted are these: in vitro.

On to `CNC(=O)c1ccc(N2C(=S)N(c3ccc(C#N)c(C(F)(F)F)c3)C(=O)C23CCC3)cc1F` [RD162], for which, in [1], the “bioavailable after oral delivery” value is recorded as about 50%. For the same molecule, in series [1], the serum half-life result is “about 30 hours”. In series [1] (24 hours after a single 20 mg/kg oral dose), this molecule gave a Trough levels of about 23 µM. Further, in the series on LNCaP/AR xenografts, the “cellular proliferation by Ki-67 staining” value is “substantially reduced”. For the same molecule, the “binding to glucocorticoid receptor” value at glucocorticoid receptor was “little to no binding”. Moreover, the “growth of AR-negative DU145 xenografts” value in series [2] is reported as “neither bicalutamide nor RD162 impaired the growth”. Also, the “Expression of AR target genes PSA and TMPRSS2 (agonist activity)” value in [3] is given as “do not have agonist activity”. The “AR recruitment to PSA enhancer and TMPRSS2 enhancer” value in series [4] and in series [7] was “Neither RD162 nor MDV3100 recruited AR” throughout. The “binding to estrogen receptor” value in the series on estrogen receptor is “little to no binding”. For the same molecule, the “Plasma levels (mean)” value in series [5] came out at 24 µM. The “Activation of VP16-AR” value in the series with VP16-AR fusion protein was “neither RD162 nor MDV3100 activated VP16-AR”. Also, the “Growth suppression in AR-negative DU145 cells” value in series [6] is given as “not observed”. In addition, the “Apoptosis in VCaP cells” value in the series with VCaP cells [8] is “induced apoptosis”. For the same molecule, at AR [9], the “concentrations expected to block AR activity based on the in vitro studies” value lay within 1 to 10 µM. In addition, the “Growth of VCaP cells” value with VCaP cells [10] was “suppressed growth”. Moreover, in the series with AR [11], the “effects on AR protein expression” value is “no obvious changes”.
